# Data reported in ChEMBL document CHEMBL3045656, “Is the application of carbendazim harmful to healthy plants? Evidence of weak phytotoxicity in tobacco” (J Agric Food Chem, 2002).
# Key:
# Assay type in all cases: organism-based
# Nicotiana tabacum [1] = experiment: Toxicity in Nicotiana tabacum (tobacco) leaves assessed as calcium level per gram of dry weight per leaf at 5.2 mM treated 3 times in 2 weeks measured prior to onset of flowering relative to control; settings: in vivo, 336 h, 5200 µM
# Nicotiana tabacum [2] = experiment: Toxicity in Nicotiana tabacum (tobacco) leaves assessed as calcium level per gram of dry weight per leaf at 2.6 mM treated 3 times in 2 weeks measured prior to onset of flowering relative to control; settings: in vivo, 336 h, 2600 µM
# Nicotiana tabacum [3] = experiment: Toxicity in Nicotiana tabacum (tobacco) leaves assessed as calcium level per gram of dry weight per leaf at 1.3 mM treated 3 times in 2 weeks measured prior to onset of flowering relative to control; settings: in vivo, 336 h, 1300 µM
# Nicotiana tabacum [4] = experiment: Toxicity in Nicotiana tabacum (tobacco) leaves assessed as potassium level per gram of dry weight per leaf at 5.2 mM treated 3 times in 2 weeks measured prior to onset of flowering relative to control; settings: in vivo, 336 h, 5200 µM
# Nicotiana tabacum [5] = experiment: Toxicity in Nicotiana tabacum (tobacco) leaves assessed as potassium level per gram of dry weight per leaf at 2.6 mM treated 3 times in 2 weeks measured prior to onset of flowering relative to control; settings: in vivo, 336 h, 2600 µM
# Nicotiana tabacum [6] = experiment: Toxicity in Nicotiana tabacum (tobacco) leaves assessed as potassium level per gram of dry weight per leaf at 1.3 mM treated 3 times in 2 weeks measured prior to onset of flowering relative to control; settings: in vivo, 336 h, 1300 µM
# Nicotiana tabacum [7] = experiment: Toxicity in Nicotiana tabacum (tobacco) leaves assessed as phosphorus level per gram of dry weight per leaf at 5.2 mM treated 3 times in 2 weeks measured prior to onset of flowering relative to control; settings: in vivo, 336 h, 5200 µM
# Nicotiana tabacum [8] = experiment: Toxicity in Nicotiana tabacum (tobacco) leaves assessed as phosphorus level per gram of dry weight per leaf at 2.6 mM treated 3 times in 2 weeks measured prior to onset of flowering relative to control; settings: in vivo, 336 h, 2600 µM
# Nicotiana tabacum [9] = experiment: Toxicity in Nicotiana tabacum (tobacco) leaves assessed as phosphorus level per gram of dry weight per leaf at 1.3 mM treated 3 times in 2 weeks measured prior to onset of flowering relative to control; settings: in vivo, 336 h, 1300 µM
# Nicotiana tabacum [10] = experiment: Toxicity in Nicotiana tabacum (tobacco) leaves assessed as nitrogen level per gram of dry weight per leaf at 5.2 mM treated 3 times in 2 weeks measured prior to onset of flowering relative to control; settings: in vivo, 336 h, 5200 µM
# Nicotiana tabacum [11] = experiment: Toxicity in Nicotiana tabacum (tobacco) leaves assessed as nitrogen level per gram of dry weight per leaf at 2.6 mM treated 3 times in 2 weeks measured prior to onset of flowering relative to control; settings: in vivo, 336 h, 2600 µM
# Nicotiana tabacum [12] = experiment: Toxicity in Nicotiana tabacum (tobacco) leaves assessed as nitrogen level per gram of dry weight per leaf at 1.3 mM treated 3 times in 2 weeks measured prior to onset of flowering relative to control; settings: in vivo, 336 h, 1300 µM
# Nicotiana tabacum [13] = experiment: Toxicity in Nicotiana tabacum (tobacco) leaves assessed as effect on carotenoids level at 5.2 mM treated 3 times in 2 weeks measured prior to onset of flowering relative to control; settings: in vivo, 336 h, 5200 µM
# Nicotiana tabacum [14] = experiment: Toxicity in Nicotiana tabacum (tobacco) leaves assessed as effect on carotenoids level at 2.6 mM treated 3 times in 2 weeks measured prior to onset of flowering relative to control; settings: in vivo, 336 h, 2600 µM
# Nicotiana tabacum [15] = experiment: Toxicity in Nicotiana tabacum (tobacco) leaves assessed as effect on carotenoids level at 1.3 mM treated 3 times in 2 weeks measured prior to onset of flowering relative to control; settings: in vivo, 336 h, 1300 µM
# Nicotiana tabacum [16] = experiment: Toxicity in Nicotiana tabacum (tobacco) leaves assessed as effect on chlorophyll-b level at 5.2 mM treated 3 times in 2 weeks measured prior to onset of flowering relative to control; settings: in vivo, 336 h, 5200 µM
# Nicotiana tabacum [17] = experiment: Toxicity in Nicotiana tabacum (tobacco) leaves assessed as effect on chlorophyll-b level at 2.6 mM treated 3 times in 2 weeks measured prior to onset of flowering relative to control; settings: in vivo, 336 h, 2600 µM
# Nicotiana tabacum [18] = experiment: Toxicity in Nicotiana tabacum (tobacco) leaves assessed as effect on chlorophyll-b level at 1.3 mM treated 3 times in 2 weeks measured prior to onset of flowering relative to control; settings: in vivo, 336 h, 1300 µM
# Nicotiana tabacum [19] = experiment: Toxicity in Nicotiana tabacum (tobacco) leaves assessed as effect on chlorophyll-a level at 5.2 mM treated 3 times in 2 weeks measured prior to onset of flowering relative to control; settings: in vivo, 336 h, 5200 µM
# Nicotiana tabacum [20] = experiment: Toxicity in Nicotiana tabacum (tobacco) leaves assessed as effect on chlorophyll-a level at 2.6 mM treated 3 times in 2 weeks measured prior to onset of flowering relative to control; settings: in vivo, 336 h, 2600 µM
# Nicotiana tabacum [21] = experiment: Toxicity in Nicotiana tabacum (tobacco) leaves assessed as effect on chlorophyll-a level at 1.3 mM treated 3 times in 2 weeks measured prior to onset of flowering relative to control; settings: in vivo, 336 h, 1300 µM
# Nicotiana tabacum [22] = experiment: Toxicity in Nicotiana tabacum (tobacco) leaves assessed as magnesium level per gram of dry weight per leaf at 5.2 mM treated 3 times in 2 weeks measured prior to onset of flowering relative to control; settings: in vivo, 336 h, 5200 µM
# Nicotiana tabacum [23] = experiment: Toxicity in Nicotiana tabacum (tobacco) leaves assessed as magnesium level per gram of dry weight per leaf at 2.6 mM treated 3 times in 2 weeks measured prior to onset of flowering relative to control; settings: in vivo, 336 h, 2600 µM
# Nicotiana tabacum [24] = experiment: Toxicity in Nicotiana tabacum (tobacco) leaves assessed as magnesium level per gram of dry weight per leaf at 1.3 mM treated 3 times in 2 weeks measured prior to onset of flowering relative to control; settings: in vivo, 336 h, 1300 µM
# Nicotiana tabacum [25] = experiment: Toxicity in Nicotiana tabacum (tobacco) leaves assessed as reduction of dry weight at 5.2 mM treated 3 times in 2 weeks measured prior to onset of flowering relative to control; set-up: scale not given: the % may be the effect or the level left; settings: in vivo, 336 h, 5200 µM
# Nicotiana tabacum [26] = experiment: Toxicity in Nicotiana tabacum (tobacco) leaves assessed as reduction of dry weight at 1.3 to 2.6 mM treated 3 times in 2 weeks measured prior to onset of flowering; settings: in vivo, 336 h, 2600 µM
smiles,measurement,setting,value
COC(=O)Nc1nc2ccccc2[nH]1 [CARBENDAZIM],Activity,Nicotiana tabacum [1],10.1 mg
same,Activity,Nicotiana tabacum [2],10.2 mg
same,Activity,Nicotiana tabacum [3],10.5 mg
same,Activity,Nicotiana tabacum [4],34.1 mg
same,Activity,Nicotiana tabacum [5],35.4 mg
same,Activity,Nicotiana tabacum [6],36.7 mg
same,Activity,Nicotiana tabacum [7],8.47 mg
same,Activity,Nicotiana tabacum [8],8.61 mg
same,Activity,Nicotiana tabacum [9],9.73 mg
same,Activity,Nicotiana tabacum [10],38.9 mg
same,Activity,Nicotiana tabacum [11],41.6 mg
same,Activity,Nicotiana tabacum [12],41.7 mg
same,Activity,Nicotiana tabacum [13],3.9 microg/cm2
same,Activity,Nicotiana tabacum [14],4.64 microg/cm2
same,Activity,Nicotiana tabacum [15],4.8 microg/cm2
same,Activity,Nicotiana tabacum [16],21.9 microg/cm2
same,Activity,Nicotiana tabacum [17],24.98 microg/cm2
same,Activity,Nicotiana tabacum [18],25.88 microg/cm2
same,Activity,Nicotiana tabacum [19],54.14 microg/cm2
same,Activity,Nicotiana tabacum [20],62.46 microg/cm2
same,Activity,Nicotiana tabacum [21],66.82 microg/cm2
same,Activity,Nicotiana tabacum [22],6.5 mg
same,Activity,Nicotiana tabacum [23],6.7 mg
same,Activity,Nicotiana tabacum [24],6.4 mg
same,Activity,Nicotiana tabacum [25],17%
same,Activity,Nicotiana tabacum [26],Non-toxic
